We go through 25 molecules from patent US5716929A (Vertex Pharmaceuticals, Inc., priority 1995, dated 1998).

SMILES strings stand for the structures. pKi: −log10 of the molar value. Square brackets hold non-standard residues; d marks the D form. Peptide text beside a SMILES is read from it. * marks the point of attachment. Hyp = O=C(O)[C@@H]1C[C@@H](O)CN1; Allyl = C=CC*

The first assay concerns the target T1, interleukin-1β converting enzyme (ICE) (Homo sapiens, UniProt P29466).
T1 sequence (P29466 120-297 limits assumed): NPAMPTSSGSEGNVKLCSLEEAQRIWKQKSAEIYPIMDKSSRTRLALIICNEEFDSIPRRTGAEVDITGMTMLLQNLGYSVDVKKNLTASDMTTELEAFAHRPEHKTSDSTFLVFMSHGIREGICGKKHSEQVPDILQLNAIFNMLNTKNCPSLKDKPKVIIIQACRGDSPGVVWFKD
T1 sequence (P29466 317-404 limits assumed): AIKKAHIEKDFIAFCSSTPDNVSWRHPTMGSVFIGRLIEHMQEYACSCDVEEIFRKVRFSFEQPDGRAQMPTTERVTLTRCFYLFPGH
As to the kind of experiment: Enzyme assay with UV-visible substrate (Succinyl-Tyr-Val-Ala-Asp-pNitroanilide). The format is biochemical. Conditions: Example 2 table. The method, then: 1. Enzyme assay with UV-visible substrate
This assay is run using an Succinyl-Tyr-Val-Ala-Asp-pNitroanilide substrate (SEQ ID NO: 1). Synthesis of analogous substrates is described by L. A. Reiter (Int. J. Peptide Protein Res. 43, 87-96 (1994)). The assay mixture contains: […]
The visible ICE assay is run in a 96-well microtiter plate. Buffer, ICE and DMSO (if inhibitor is present) are added to the wells in the order listed. The components are left to incubate at room temperature for 15 minutes starting at the time that all components are present in all wells. The microtiter plate reader is set to incubate at 37° C. After the 15 minute incubation, substrate is added directly to the wells and the reaction is monitored by following the release of the chromophore (pNA) at 405-603 nm at 37° C. for 20 minutes. A linear fit of the data is performed and the rate is calculated in mOD/min. DMSO is only present during experiments involving inhibitors, buffer is used to make up the volume to 100 μl in the other experiments.
For determination of enzyme inhibition constants (Ki) or the mode of inhibition (competitive, uncompetitive or noncompetitive), the rate data determined in the enzyme assays at varying inhibitor concentrations are computer-fit to standard enzyme kinetic equations (see I. H. Segel, Enzyme Kinetics, Wiley-Interscience, 1975).
Consider `C[C@H](NC(=O)c1ncc[nH]1)C(=O)N[C@H](C=O)CC(=O)O` [Compound 20a, (3S)3-[N-(Imidazole-2-carbonyl)-L-alaninyl]amino-4-oxobutanoic acid], for which the pKi is 5.49. In the case of `C[C@H](NC(=O)c1ncc(CCc2ccccc2)[nH]1)C(=O)N[C@H](C=O)CC(=O)O` [Compound 20c, (3S)3-{N-[4-(2-Phenylethyl)imidazole-2-carbonyl]-L-alaninyl}amino-4-oxobutanoic acid], the negative logarithm of the Ki (pKi) was 6.02.

In turn, `C[C@H](NC(=O)c1cnc(CCc2ccccc2)[nH]1)C(=O)N[C@H](C=O)CC(=O)O` [Compound 33a, (3S)3-{N-[2-(2-Phenylethyl)imidazole-4-carbonyl]-L-alaninyl}amino-4-oxobutanoic acid] showed a pKi of 5.26. This pKi lies 0.76 log units lower than the previous one. `C[C@H](NC(=O)c1cnc(Cc2ccccc2)[nH]1)C(=O)N[C@H](C=O)CC(=O)O` [Compound 33c, (3S)3-[N-(2-Benzylimidazole-4-carbonyl)-L-alaninyl]amino-4-oxobutanoic acid]: the pKi was 5.07. `C[C@H](NC(=O)c1ccc[nH]1)C(=O)N[C@H](C=O)CC(=O)O` [Compound 36a, (3S)3-[N-(Pyrrole-2-carbonyl)-L-alaninyl]amino-4-oxobutanoic acid]: the pKi was 5.33. This pKi lies 0.26 log units higher than the previous one.

The assay is the same for the next values; noted with them: Example 4 table.
Molecule `CC(C)[C@H](NC(=O)OCc1ccccc1)C(=O)N[C@@H](C)C(=O)N[C@H](CC(=O)O)C(=O)COCc1c(Cl)cccc1Cl` (mixture of isomers) [Compound 84a, (R,S) N-[N-(Phenylmethyloxy)carbonyl-valinyl-alaninyl]-3-amino-5-(2,6-dichlorophenylmethyloxy)-4-oxo-pentanoic acid] had a pKi of 7.00.

On to `CC(=O)N[C@@H](Cc1ccc(O)cc1)C(=O)N[C@H](C(=O)N[C@@H](C)C(=O)N[C@H](CC(=O)O)C(=O)COCc1c(Cl)cccc1Cl)C(C)C` (mixture of isomers) [Compound 84b, (R,S)N-[N-(Acetyl)tyrosinyl-valinyl-alaninyl]-3-amino-5-(2,6-dichlorophenylmethyloxy)-4-oxo-pentanoic acid], for which the pKi is 7.72. Still for that read-out and setting: the same measure for `O=C[C@H](CC(=O)O)NC(=O)C1CCc2ncc(NC(=O)c3ccccc3)c(=O)n21` (single isomer, unassigned) [Compound 7a]: 4.46. `O=C[C@H](CC(=O)O)NC(=O)C1CCc2ncc(NC(=O)c3ccccc3)c(=O)n21` (single isomer, unassigned) [Compound 7b]: the pKi was 5.92. This pKi is 1.46 log units higher than that of the molecule before. Consider `C[C@H](NC(=O)c1nc(Cc2ccccc2)c[nH]1)C(=O)N[C@H](C=O)CC(=O)O` [Compound 20b, (3S)3-[N-(4-Benzylimidazole-2-carbonyl)-L-alaninyl]amino-4-oxobutanoic acid], for which the pKi is 6.07. This pKi and that of the molecule before are within 0.2 log units of each other.

`C[C@H](NC(=O)c1nc(CCCc2ccccc2)c[nH]1)C(=O)N[C@H](C=O)CC(=O)O` [Compound 20d, (3S)3-{N-[4-(3-Phenylpropyl)imidazole-2-carbonyl]-L-alaninyl}amino-4-oxo-butanoic acid]: the pKi was 7.00. Against the preceding molecule, the pKi is 0.93 log units higher.

`O=C[C@H](CC(=O)O)NC(=O)[C@@H]1CCCN1C(=O)c1nc(CCc2ccccc2)c[nH]1` [Compound 21c, (3S)3{N-[4-(2-Phenylethyl)imidazole-2-carbonyl]-L-prolinyl}amino-4-oxobutanoic acid] had a pKi of 6.19. `O=C[C@H](CC(=O)O)NC(=O)[C@@H]1CCCN1C(=O)c1nc(CCCc2ccccc2)c[nH]1` [Compound 21d, (3S) 3-{N-[4-(3-Phenylpropyl)imidazole-2-carbonyl]-L-prolinyl}amino-4-oxo-butanoic acid]: the pKi is 6.62. Turning to `COc1ccc(CCCc2c[nH]c(C(=O)N3CCC[C@H]3C(=O)N[C@H](C=O)CC(=O)O)n2)cc1` [Compound 21e, (3S)3-{N-[4-[3-(4-Methoxyphenyl)propyl]imidazole-2-carbonyl]-L-prolinyl}amino-4-oxobutanoic acid], the pKi was 6.66.

As to `O=C[C@H](CC(=O)O)NC(=O)[C@@H]1CCCN1C(=O)c1nc(CCCc2ccc(O)cc2)c[nH]1` [Compound 21f, (3S)3-{N-[4-[3-(4-Hydroxyphenyl)propyl]imidazole-2-carbonyl]-L-prolinyl}amino-4-oxobutanoic acid], the pKi is 6.77. The pKi values of the last two molecules are within 0.2 log units of each other. As to `C[C@H](NC(=O)c1ccc(Cc2ccccc2)[nH]1)C(=O)N[C@H](C=O)CC(=O)O` [Compound 36b, (3S)3-[N-(5-Benzylpyrrole-2-carbonyl)-L-alaninyl]amino-4-oxobutanoic acid], the pKi was 6.10. This pKi lies 0.67 log units lower than the previous one. Turning to `O=C[C@H](CC(=O)O)NC(=O)[C@@H]1CCCN1C(=O)c1cc2ccccc2[nH]1` [Compound 39, (3S) 3-[1-(Indole-2-carbonyl)-L-prolinyl]amino-4-oxobutanoic acid], the pKi is 5.60. On to `Cc1c[nH]c2c(=O)n(CC(=O)N[C@H](C=O)CC(=O)O)cnc12` [Compound 43, (3S)-3-[2-(3,5-Dihydro-7-methyl-4-oxo-4H-pyrrolo[3,2-d]pyrimidin-3-yl)-1-oxo-ethylamino]-4-oxobutanoic acid], for which the pKi was 4.70. Same read-out and setting: the same measure for `CC(C(=O)N[C@H](C=O)CC(=O)O)n1c(Cc2ccccc2)ccc(NC(=O)CCc2ccccc2)c1=O` (stereo partly drawn) [Compound 54h, 3(S), N(2(R,S))3-(2-(6-Benzyl-1,2-dihydro-2-oxo-3-(3-phenylpropionyl)amino-1-pyridyl)propionylamino)-4-oxobutanoic acid]: 6.01.

The assay is the same for the next values; noted with them: Example 6 table.
In the case of `CC(C(=O)N[C@H](C=O)CC(=O)O)N1CCN(C(=O)CCc2ccccc2)C[C@H](NC(=O)CCc2ccccc2)C1=O` (mixture of isomers) [Compound 115, 4-Oxo-3(S)-{2(R,S)-[7-oxo-4-(3-phenyl-propionyl)-6(S)-(3-phenyl-propionylamino)-[1,4]diazepan-1-yl]propionylamino}-butyric acid], the pKi was 6.46. Turning to `COc1ccc(CCCc2cnc(C(=O)N3C[C@H](Oc4ccccc4)C[C@H]3C(=O)N[C@H](C=O)CC(=O)O)[nH]2)cc1` [Compound 22e, 3(S)-[(1-{5-[3-(4-Methoxyphenyl)propyl]-1H-imidazole-2-carbonyl}-4(R)-phenoxypyrrolidine-2(S)-carbonyl)amino]-4-oxobutanoic acid], the pKi is 6.72. Take `C=CCO[C@@H]1C[C@@H](C(=O)N[C@H](C=O)CC(=O)O)N(C(=O)[C@@H](NC(=O)[C@H](Cc2ccc(O)cc2)NC(C)=O)C(C)C)C1` [Compound 85, N-(N-Acetyl-tyrosinyl-valinyl-(4 (R)-allyloxyprolinyl))-3(S)-amino-4-oxobutanoic acid] (Ac-YV[Hyp](Allyl)D-aldehyde): the pKi is 8.46. Compared with the last molecule, the pKi is 1.74 log units higher. `O=C(O)C[C@H](NC(=O)Cn1c(Cc2ccccc2)ccc(NC(=O)CCc2ccccc2)c1=O)C(=O)CO` [Compound 88, N-2-(6-Benzyl-1,2-dihydro-2-oxo-3-(3-phenylpropionyl)amino-1-pyridyl)acetyl-3(S)-amino-5-hydroxy-4-oxo-pentanoic acid]: the pKi was 6.05. Molecule `CC(=O)N[C@@H](Cc1ccc(O)cc1)C(=O)N[C@H](C(=O)N[C@@H](C)C(=O)N[C@@H](CC(=O)O)C(=O)COCc1ccccc1Cl)C(C)C` [Compound 89, N-Acetyl-(S)-tyrosinyl-(S)-valinyl-(S)-alaninyl-3(S)-amino-5-(2-chlorobenzyloxy)-4-oxo-pentanoic acid] had a pKi of 7.74. Still for that read-out and setting: the result for `O=C[C@H](CC(=O)O)NC(=O)CN1C(=O)[C@@H](NC(=O)CCc2ccccc2)CN(C(=O)CCc2ccccc2)c2ccccc21` [Compound 106b] reads 6.70.
